The source made the active and inactive calls. The rule behind the calls is not given here.
Assays:
[1] = system: Human immunodeficiency virus 1; experiment: Antiviral activity against multidrug-resistant HIV1 isolate G containing L10I, V11I, T12E, I15V, L19I,R41K, M46L, L63P, A71T, V82A, and L90M mutant infected in human PHA-PBMC cells by p24 Gag protein production inhibition assay; settings: Human immunodeficiency virus 1, isolate G
[2] = system: Human immunodeficiency virus 1; experiment: Antiviral activity against multidrug-resistant HIV1 isolate C containing protease L10I, I15V, K20R, L24I, M36I, M46L, I54V, I62V, L63P, K70Q, V82A, and L89M mutant infected in human PHA-PBMC cells by p24 Gag protein production inhibition assay; settings: Human immunodeficiency virus 1, isolate C
[3] = system: Human immunodeficiency virus 1; experiment: Antiviral activity against multidrug-resistant HIV1 isolate TM containing L10I, K14R, R41K, M46L, I54V, L63P, A71V, V82A, L90M, and I93L mutant infected in human PHA-PBMC cells by p24 Gag protein production inhibition assay; settings: Human immunodeficiency virus 1, isolate TM
[4] = system: Human immunodeficiency virus 1; experiment: Antiviral activity against wild type HIV1 NL4-3 infected in human MT4 cells by p24 Gag protein production inhibition assay; settings: Human immunodeficiency virus 1, NL4-3, MT4
[5] = system: Human immunodeficiency virus 1; experiment: Antiviral activity against HIV1 expressing protease L10F/M46I/T91S mutant infected in human MT4 cells selected at 1 uM of GRL-246 by MTT assay; type: functional, organism-based; settings: Human immunodeficiency virus 1, MT4
[6] = system: Human immunodeficiency virus 1; experiment: Antiviral activity against HIV1 expressing protease L23I/E34Q/K43I/M46I/I50L/G51A/L63P/A71V/V82A/T91A mutant infected in human MT4 cells selected at 5 uM of atazanavir by p24 Gag protein production inhibition assay; settings: Human immunodeficiency virus 1, MT4
[7] = system: Human immunodeficiency virus 1; experiment: Antiviral activity against HIV1 expressing protease L10F/D30N/K45I/A71V/T74S mutant infected in human MT4 cells selected at 5 uM of nelfinavir by MTT assay; type: functional, organism-based; settings: Human immunodeficiency virus 1, MT4
[8] = system: Human immunodeficiency virus 1; experiment: Antiviral activity against HIV1 expressing protease L10I/L24I/M46I/V82I/I84V mutant infected in human MT4 cells selected after 50 passages of GRL-216 by MTT assay; type: functional, organism-based; settings: Human immunodeficiency virus 1, MT4
[9] = system: Human immunodeficiency virus 1; experiment: Antiviral activity against multidrug-resistant HIV1 isolate B containing protease L10I, K14R, L33I, M36I,M46I, F53I, K55R, I62V, L63P, A71V, G73S, V82A, L90M, and I93L mutant infected in human PHA-PBMC cells by p24 Gag protein production inhibition assay; settings: Human immunodeficiency virus 1, isolate B
[10] = system: Human immunodeficiency virus 1; experiment: Antiviral activity against HIV1 expressing protease L10I/G48V/I54V/A71V/I84V/L90M mutant infected in human MT4 cells selected at 5 uM of saquinavir by p24 Gag protein production inhibition assay; settings: Human immunodeficiency virus 1, MT4
[11] = system: Human immunodeficiency virus 1; experiment: Antiviral activity against HIV1 expressing protease L10F/M46I/I50V/A71V/I84V/L90M mutant infected in human MT4 cells selected at 5 uM of amprenavir by p24 Gag protein production inhibition assay; settings: Human immunodeficiency virus 1, MT4
[12] = system: Human immunodeficiency virus 1; experiment: Antiviral activity against HIV1 expressing protease L10F/M46M,I/Q61Q mutant infected in human MT4 cells selected at 1 uM of GRL-396 by MTT assay; type: functional, organism-based; settings: Human immunodeficiency virus 1, MT4
[13] = system: Human immunodeficiency virus 1; experiment: Antiviral activity against wild type HIV1 ERS104 containing protease L63P mutant infected in human PHA-PBMC cells by p24 Gag protein production inhibition assay; settings: Human immunodeficiency virus 1, ERS104, PBMC
[14] = system: Human immunodeficiency virus 1; experiment: Antiviral activity against HIV1 expressing protease L10F/M46I/I54V/V82A mutant infected in human MT4 cells selected at 5 uM of Lopinavir by p24 Gag protein production inhibition assay; settings: Human immunodeficiency virus 1, MT4
[15] = system: Human immunodeficiency virus 1; experiment: Antiviral activity against multidrug-resistant HIV1 isolate JSL containing L10I, L24I, I33F, E35D, M36I, N37S, M46L, I54V, R57K, I62V, L63P, A71V, G73S, and V82A mutant infected in human PHA-PBMC cells by p24 Gag protein production inhibition assay; settings: Human immunodeficiency virus 1, isolate JSL
[16] = system: Human immunodeficiency virus 1; experiment: Antiviral activity against multidrug-resistant HIV1 isolate MM containing L10I, K43T, M46L, I54V, L63P, A71V, V82A, L90M, and Q92K mutant infected in human PHA-PBMC cells by p24 Gag protein production inhibition assay; settings: Human immunodeficiency virus 1, isolate MM
[17] = system: Human immunodeficiency virus 1; experiment: Antiviral activity against HIV1 LAI infected in human MT2 cells by MTT assay; type: functional, organism-based; settings: Human immunodeficiency virus 1, LAI
[18] = Cytotoxicity against human MT2 cells after 7 days by MTT assay; type: cell-based
[19] = system: Human immunodeficiency virus 2; experiment: Antiviral activity against HIV2 ROD infected in human MT2 cells by MTT assay; type: functional, organism-based; settings: Human immunodeficiency virus 2, ISOLATE ROD
[20] = system: Human immunodeficiency virus 1; experiment: Antiviral activity against HIV1 expressing protease L10F/M46L/I50V/A71Vmutant infected in human MT4 cells selected at 1 uM of GRL-286 by MTT assay; type: functional, organism-based; settings: Human immunodeficiency virus 1, MT4
[21] = system: Human immunodeficiency virus 2; experiment: Antiviral activity against HIV2 EHO infected in human MT2 cells by MTT assay; type: functional, organism-based; settings: Human immunodeficiency virus 2, EHO
[22] = system: Human immunodeficiency virus 1; experiment: Antiviral activity against HIV1 NL4-3 infected in human MT4 cells at 1 uM after 37 passages by MTT assay; type: functional, organism-based
MT2 [23] = experiment: Ratio of EC50 for HIV2 EHO to EC50 for HIV1 LAI infected in human MT2 cells; type: functional
[24] = system: Human immunodeficiency virus 1; experiment: Antiviral activity against HIV1 NL4-3 infected in human MT4 cells at 1 uM after 33 passages by MTT assay; type: functional, organism-based
[25] = system: Human immunodeficiency virus 1; experiment: Antiviral activity against HIV1 NL4-3 infected in human MT4 cells after 50 passages by MTT assay; type: functional, organism-based
MT2 [26] = experiment: Ratio of EC50 for HIV2 ROD to EC50 for HIV1 LAI infected in human MT2 cells; type: functional
[27] = system: Human immunodeficiency virus 1; experiment: Antiviral activity against HIV1 NL4-3 infected in human MT4 cells at 1 uM after 20 passages by MTT assay; type: functional, organism-based
[28] = Selectivity ratio of CC50 for human MT2 cells to EC50 for HIV1 LAI infected human MT2 cells; type: ADME, cell-based; settings: MT2 cells (CC50) and HIV1 LAI infected MT2 cells (EC50)
[29] = system: Human immunodeficiency virus type 1 protease (Human immunodeficiency virus 1), Q72874 [L24I,V82I,I84V]; experiment: Inhibition of protease L24I/V82I/I84V[…] dimerization in HIV1 infected in COS7 cells at 0.1 uM by FRET based assay; type: cell-based; settings: COS-7

| SMILES | EC50 [1] | EC50 [2] | EC50 [3] | EC50 [4] | EC50 [5] | EC50 [6] | EC50 [7] | EC50 [8] | EC50 [9] | EC50 [10] | EC50 [11] | EC50 [12] | EC50 [13] | EC50 [14] | EC50 [15] | EC50 [16] | EC50 [17] | CC50 at 168 h [18] | EC50 [19] | EC50 [20] | further results |
| --- | --- | --- | --- | --- | --- | --- | --- | --- | --- | --- | --- | --- | --- | --- | --- | --- | --- | --- | --- | --- | --- |
| COC(=O)N[C@H](C(=O)N[C@@H](Cc1ccccc1)[C@@H](O)CN(Cc1ccc(-c2ccccn2)cc1)NC(=O)[C@@H](NC(=O)OC)C(C)(C)C)C(C)(C)C [ATAZANAVIR] | 33 nM | 65 nM | 65 nM | 4 nM | 32 nM | > 1000 nM | 27 nM | 14 nM | 200 nM | 210 nM | 6 nM | 24 nM | 2 nM | 36 nM | 430 nM | 180 nM | – | – | – | – | – |
| Cc1cccc(C)c1OCC(=O)N[C@@H](Cc1ccccc1)[C@@H](O)C[C@H](Cc1ccccc1)NC(=O)[C@H](C(C)C)N1CCCNC1=O [LOPINAVIR] | – | > 1000 nM | > 1000 nM | 46 nM | 330 nM | > 1000 nM | 37 nM | 190 nM | > 1000 nM | 120 nM | > 1000 nM | 280 nM | 34 nM | > 1000 nM | > 1000 nM | > 1000 nM | 39 nM | > 100000 nM | 28 nM | > 1000 nM | EC50 [21]: 35 nM |
| CC(C)(C)NC(=O)[C@@H]1C[C@@H]2CCCC[C@@H]2CN1C[C@@H](O)[C@H](Cc1ccccc1)NC(=O)[C@H](CC(N)=O)NC(=O)c1ccc2ccccc2n1 | 30 nM | 32 nM | 260 nM | 5 nM | – | 31 nM | 3 nM | – | 270 nM | > 1000 nM | 26 nM | – | 8 nM | 28 nM | 300 nM | 190 nM | – | – | – | – | – |
| CC(C)CN(C[C@@H](O)[C@H](Cc1ccccc1)NC(=O)O[C@H]1CCOC1)S(=O)(=O)c1ccc(N)cc1 | 430 nM | 370 nM | 320 nM | 34 nM | 340 nM | 280 nM | 28 nM | 260 nM | > 1000 nM | 180 nM | > 1000 nM | 350 nM | 30 nM | 260 nM | 620 nM | 210 nM | 24 nM | > 100000 nM | 420 nM | > 1000 nM | Activity [22]: inactive; Ratio EC50 (MT2 [23]): 3.53; Activity [24]: inactive; EC50 [21]: 120 nM; Activity [25]: inactive; Ratio EC50 (MT2 [26]): 12.3; Activity [27]: inactive |
| COc1ccc2c(c1)OCCCCCCCCN(C[C@@H](O)[C@H](Cc1ccccc1)NC(=O)O[C@H]1CO[C@H]3OCC[C@H]31)S2(=O)=O | – | – | – | – | 420 nM | – | – | 260 nM | – | – | – | 370 nM | – | – | – | – | 22 nM | 33300 nM | – | > 1000 nM | Activity [22]: inactive; Activity [24]: inactive; Activity [25]: inactive; Activity [27]: inactive |
| Cc1c(O)cccc1C(=O)N[C@@H](CSc1ccccc1)[C@H](O)CN1C[C@H]2CCCC[C@H]2C[C@H]1C(=O)NC(C)(C)C | – | – | – | – | 290 nM | > 1000 nM | > 1000 nM | 130 nM | – | 510 nM | 300 nM | 220 nM | – | 320 nM | – | – | – | – | – | – | – |
| CC(C)CN(C[C@@H](O)[C@H](Cc1ccccc1)NC(=O)O[C@H]1CO[C@H]2OCC[C@H]21)S(=O)(=O)c1ccc(N)cc1 | – | – | – | – | 29 nM | – | – | – | – | – | 290 nM | 16 nM | – | 25 nM | – | – | – | – | 10 nM | – | – |
| CCC[C@@]1(CCc2ccccc2)CC(O)=C([C@H](CC)c2cccc(NS(=O)(=O)c3ccc(C(F)(F)F)cn3)c2)C(=O)O1 | 240 nM | 380 nM | 380 nM | 320 nM | 95 nM | 410 nM | 39 nM | 29 nM | 180 nM | 22 nM | 220 nM | 42 nM | 120 nM | 310 nM | 230 nM | 350 nM | 170 nM | 54100 nM | 330 nM | 37 nM | selectivity ratio [28]: 320; EC50 [21]: 300 nM |
| CC(C)(C)NC(=O)[C@@H]1CN(Cc2cccnc2)CCN1C[C@@H](O)C[C@@H](Cc1ccccc1)C(=O)N[C@H]1c2ccccc2C[C@H]1O | 340 nM | > 1000 nM | > 1000 nM | – | – | – | – | – | > 1000 nM | – | – | – | 43 nM | – | > 1000 nM | > 1000 nM | – | – | – | – | – |
| COc1ccc2c(c1)OC/C=C/CCCCN(C[C@@H](O)[C@H](Cc1ccccc1)NC(=O)O[C@H]1CO[C@H]3OCC[C@H]31)S2(=O)=O | – | – | – | – | 370 nM | – | – | 240 nM | – | – | – | 520 nM | – | – | – | – | 14 nM | 44900 nM | – | > 1000 nM | Activity [22]: inactive; selectivity ratio [28]: 3200; inhibition [29]: Active; Activity [24]: inactive; Activity [25]: inactive; Activity [27]: inactive |
